Data on 18 molecules can be found in patent US20260078130A1, “NAMPT MODULATORS, PREPARATIONS, AND USES THEREOF” (SIRONAX LTD., priority 2022, published 2026).

Each structure is given as a SMILES string. Like-named read-outs stand apart in the source and are kept apart here. Bounds are passed on as bounds.

For assay [1], the system named is endogenous NAMPT in U2OS cells. As to the kind of experiment: Cellular NAD+ modulation assay (NAD/NADH-Glo, U2OS cells). The assay is classed as cell-based. The following applies: Homo sapiens; for maximal fold induction: read-out: Cellular Emax. A digest of the protocol: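 NAD/NADH-Glo luminescence quantified NAD+ after acid treatment (60 °C, 15 min) and neutralization of DTAB lysates. Beforehand, U2OS cells seeded 16 h earlier received compound concentration series for 24 h at 37 °C. Values given as half-maximal activation concentration (EC50) and maximal fold change versus DMSO (Emax).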

Assay [2] has as its target T1, human enzyme NAMPT (full length) (Homo sapiens, UniProt P43490).
T1 construct: human enzyme NAMPT (full length)
The assay is described as follows: NMN fluorescence biochemical assay (stimulation of NMN synthesis by NAMPT). The following applies: for EC50: concentration giving half-maximal activation, read-out: Enzymatic EC50; for Enzymatic Emax: fold change of maximal activation compared to DMSO. A digest of the protocol:
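Full-length human NAMPT (100 nM) was preincubated 15 min at 37 °C with compound in 50 mM Tris-HCl pH 7.5, 10 mM MgCl2, 2 mM DTT, then reacted 1 h at 37 °C with 50 μM NAM, 100 μM PRPP, 4 mM ATP (stated solution concentrations). NMN was derivatised with acetophenone/KOH then formic acid and read at Ex/Em 382/445 nm; EC50 and Emax (fold over DMSO) reported.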

Where [3] appears, read: 24 hours incubation with compound.
Where [4] appears, read: NMN synthesis by purified human NAMPT (100 nM).
Setting [5] is: 24 hours incubation, cellular NAD+.
The mark [6] stands for this setting: NMN fluorescence assay, purified human NAMPT 100 nM.

T1 sequence (P43490 whole entry): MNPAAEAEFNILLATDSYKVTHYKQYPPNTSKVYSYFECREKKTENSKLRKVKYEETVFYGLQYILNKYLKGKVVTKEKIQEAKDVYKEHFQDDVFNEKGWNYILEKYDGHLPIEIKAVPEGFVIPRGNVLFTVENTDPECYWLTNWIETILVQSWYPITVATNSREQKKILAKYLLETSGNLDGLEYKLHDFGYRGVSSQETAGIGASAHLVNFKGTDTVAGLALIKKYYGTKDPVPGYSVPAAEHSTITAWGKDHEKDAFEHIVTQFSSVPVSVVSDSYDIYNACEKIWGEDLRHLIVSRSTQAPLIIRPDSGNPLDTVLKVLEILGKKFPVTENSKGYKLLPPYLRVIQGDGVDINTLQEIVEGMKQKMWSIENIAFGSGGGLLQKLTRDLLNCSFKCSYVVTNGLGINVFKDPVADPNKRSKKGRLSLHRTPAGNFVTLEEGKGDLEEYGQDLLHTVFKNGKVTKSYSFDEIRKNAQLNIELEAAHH

One may read the EC50 as the concentration giving half of the maximal effect. With `Cn1c2ccccc2c(=O)n1Cc1ccc2[nH]nnc2c1` [Compound 301, 2-((1H-benzo[d][1,2,3]triazol-5-yl)methyl)-1-methyl-1,2-dihydro-3H-indazol-3-one], in assay [1] (setting [3]), the EC50 was in the range of 5 to 50 µM and the maximal fold induction is 1.2 to 1.5. Also, the EC50 in assay [2] (setting [4]) is at least 5 µM. For the same molecule, the “Enzymatic Emax” value in assay [2] is reported as “C (2≥C)”.
In the case of `Cc1n[nH]cc1C#CCN1C(=O)c2ccccc2C1Cc1c(Cl)cnn1C` (stereo not drawn) [Compound 478, 3-((4-chloro-1-methyl-1H-pyrazol-5-yl)methyl)-2-(3-(3-methyl-1H-pyrazol-4-yl)prop-2-yn-1-yl)isoindolin-1-one], the EC50 in assay [1] (setting [5]) and in assay [2] (setting [6]) was 0.5 to 5 µM in each case. In assay [1] (setting [5]), the maximal fold induction was above 1.5. Besides, in assay [2], the “Enzymatic Emax” value is “B (3≥B>2)”.
Turning to `O=c1ccc2ccccc2n1Cc1ccc(O)cc1` [Compound 5, 1-(4-hydroxybenzyl)quinolin-2(1H)-one], the 50% effective concentration (EC50) was 0.5 to 5 µM in assay [1] (setting [3]) and at least 5 µM in assay [2] (setting [4]). Moreover, the maximal fold induction in assay [1] (setting [3]) lay within 1.2 to 1.5. Besides, the “Enzymatic Emax” value in assay [2] was “A (A>3)”.
Turning to `COc1ccc(CN2C(=O)c3ccccc3C2Cc2c(C#N)ccnc2C#N)cn1` (stereo not drawn) [Compound 598, 3-((2-((6-methoxypyridin-3-yl)methyl)-3-oxoisoindolin-1-yl)methyl)pyridine-2,4-dicarbonitrile], in assay [1] (setting [5]), the EC50 was in the range of 0.5 to 5 µM and the maximal fold induction was above 1.5. For the same molecule, the EC50 in assay [2] (setting [6]) fell in the range of 0.5 to 5 µM. For the same molecule, the “Enzymatic Emax” value in assay [2] is reported as “B (3≥B>2)”.
For the molecule `Cc1ccnc(C#N)c1CC1c2ccccc2C(=O)N1C/C=C/c1c[nH]nn1` (stereo not drawn) [Compound 409, (E)-3-((2-(3-(1H-1,2,3-triazol-4-yl)allyl)-3-oxoisoindolin-1-yl)methyl)-4-methylpicolinonitrile], in assay [1] (setting [5]), the EC50 was below 0.5 µM and the maximal fold induction is above 1.5. Further, in assay [2] (setting [6]), the EC50 was below 0.5 µM. Besides, the “Enzymatic Emax” value in assay [2] is given as “B (3≥B>2)”.
Regarding `Cn1ncc(Cl)c1CC1c2ccccc2C(=O)N1Cc1ccc(Cl)cc1` (stereo not drawn) [Compound 573, 3-((4-chloro-1-methyl-1H-pyrazol-5-yl)methyl)-2-(4-chlorobenzyl)isoindolin-1-one], the EC50 in assay [1] (setting [5]) was 5 to 50 µM; in assay [2] (setting [6]), at least 5 µM. Further, the maximal fold induction in assay [1] (setting [5]) is at most 1.2. For the same molecule, the “Enzymatic Emax” value in assay [2] was “C (2≥C)”.
For the molecule `COC1CC2(CC(CN3C(=O)c4ccccc4C3Cc3c(Cl)cnn3C)C2)C1` (stereo not drawn) [Compound 599, 3-((4-chloro-1-methyl-1H-pyrazol-5-yl)methyl)-2-((6-methoxyspiro[3.3]heptan-2-yl)methyl)isoindolin-1-one], in assay [1] (setting [5]), the EC50 is 0.5 to 5 µM and the maximal fold induction lay within 1.2 to 1.5. For the same molecule, the EC50 in assay [2] (setting [6]) was at least 5 µM. Further, in assay [2], the “Enzymatic Emax” value is “C (2≥C)”.
Regarding `N#Cc1ccccc1CC1c2ccccc2C(=O)N1Cc1cc(F)c(O)c(F)c1` (stereo not drawn) [Compound 197, 2-((2-(3,5-difluoro-4-hydroxybenzyl)-3-oxoisoindolin-1-yl)methyl)benzonitrile], in assay [1] (setting [3]), the EC50 lay in the range of 0.5 to 5 µM and the maximal fold induction was above 1.5. The EC50 in assay [2] (setting [4]) was 0.5 to 5 µM. The “Enzymatic Emax” value in assay [2] was “B (3≥B>2)”.
Turning to `Cc1nc(O)sc1CN1C(=O)c2ccccc2C1Cc1c(Cl)cnn1C` (stereo not drawn) [Compound 635, 3-((4-chloro-1-methyl-1H-pyrazol-5-yl)methyl)-2-((2-hydroxy-4-methylthiazol-5-yl)methyl)isoindolin-1-one], in assay [1] (setting [5]), the EC50 lay in the range of 0.5 to 5 µM and the maximal fold induction was above 1.5. Also, the EC50 in assay [2] (setting [6]) was 0.5 to 5 µM. In addition, the “Enzymatic Emax” value in assay [2] is “B (3≥B>2)”.
`Cn1ncc(Cl)c1CC1c2ccccc2C(=O)N1Cc1cc(=O)[nH]o1` (stereo not drawn) [Compound 602, 5-((1-((4-chloro-1-methyl-1H-pyrazol-5-yl)methyl)-3-oxoisoindolin-2-yl)methyl)isoxazol-3(2H)-one]: in assay [1] (setting [5]), the EC50 is 0.5 to 5 µM and the maximal fold induction was above 1.5. In assay [2] (setting [6]), the EC50 is at least 5 µM. For the same molecule, the “Enzymatic Emax” value in assay [2] is recorded as “B (3≥B>2)”.
Consider `NC(=O)c1ccc2c(c1)C(=O)N(Cc1ccc(O)cc1)C2=O` [Compound 38, 2-(4-hydroxybenzyl)-1,3-dioxoisoindoline-5-carboxamide], for which the EC50 in assay [1] (setting [3]) was 5 to 50 µM; in assay [2] (setting [4]) it was at least 5 µM. The maximal fold induction in assay [1] (setting [3]) is at most 1.2. For the same molecule, the “Enzymatic Emax” value in assay [2] is reported as “A (A>3)”.
The like results for `N#Cc1cncc(Cl)c1CC1c2ccccc2C(=O)N1Cc1ccc2[nH]nnc2c1` (stereo not drawn) [Compound 278, 4-((2-((1H-benzo[d][1,2,3]triazol-5-yl)methyl)-3-oxoisoindolin-1-yl)methyl)-5-chloronicotinonitrile] were, in that order, below 0.5 µM, below 0.5 µM, above 1.5 and “A (A>3)”.
As for `Cn1ncc(Cl)c1CC1c2c(F)cccc2C(=O)N1CC1CC2(CNC(=O)O2)C1` (stereo not drawn) [Compound 511, 2-((3-((4-chloro-1-methyl-1H-pyrazol-5-yl)methyl)-4-fluoro-1-oxoisoindolin-2-yl)methyl)-5-oxa-7-azaspiro[3.4]octan-6-one], in assay [1] (setting [5]), the EC50 is below 0.5 µM and the maximal fold induction fell in the range of 1.2 to 1.5. For the same molecule, the EC50 in assay [2] (setting [6]) lay in the range of 0.5 to 5 µM. Further, the “Enzymatic Emax” value in assay [2] is “A (A>3)”.
Take `Cn1ncc(Cl)c1CC1c2ccccc2C(=O)N1CC#Cc1c[nH]nc1Cl` (stereo not drawn) [Compound 477, 3-((4-chloro-1-methyl-1H-pyrazol-5-yl)methyl)-2-(3-(3-chloro-1H-pyrazol-4-yl)prop-2-yn-1-yl)isoindolin-1-one]: in assay [1] (setting [5]), the EC50 is below 0.5 µM and the maximal fold induction is above 1.5. Also, in assay [2] (setting [6]), the EC50 is below 0.5 µM. For the same molecule, in assay [2], the “Enzymatic Emax” value was “B (3≥B>2)”.
Consider `O=C1c2ccccc2C(Cc2ncccc2Br)N1Cc1ccc2[nH]c(=O)oc2c1F` (stereo not drawn) [Compound 224, 6-((1-((3-bromopyridin-2-yl)methyl)-3-oxoisoindolin-2-yl)methyl)-7-fluorobenzo[d]oxazol-2(3H)-one], for which, in assay [1] (setting [3]), the EC50 lay within 0.5 to 5 µM and the maximal fold induction was above 1.5. In addition, the EC50 in assay [2] (setting [4]) was below 0.5 µM. Moreover, in assay [2], the “Enzymatic Emax” value is listed as “A (A>3)”.
Take `O=C1c2ccccc2C(Cc2ncccc2Br)N1Cc1ccc2[nH]c(=O)oc2n1` (stereo not drawn) [Compound 241, 5-((1-((3-bromopyridin-2-yl)methyl)-3-oxoisoindolin-2-yl)methyl)oxazolo[5,4-b]pyridin-2(1H)-one]: in assay [1] (setting [3]), the EC50 lay in the range of 0.5 to 5 µM and the maximal fold induction lay within 1.2 to 1.5. Also, the EC50 in assay [2] (setting [4]) was in the range of 0.5 to 5 µM. For the same molecule, the “Enzymatic Emax” value in assay [2] is “A (A>3)”.
As to `Cc1ncnc(C#N)c1CC1c2ccccc2C(=O)N1Cc1ccc2[nH]nnc2c1` (stereo not drawn) [Compound 384, 5-((2-((1H-benzo[d][1,2,3]triazol-5-yl)methyl)-3-oxoisoindolin-1-yl)methyl)-6-methylpyrimidine-4-carbonitrile], in assay [1] (setting [5]), the EC50 is below 0.5 µM and the maximal fold induction was above 1.5. The EC50 in assay [2] (setting [6]) was below 0.5 µM. Moreover, the “Enzymatic Emax” value in assay [2] is listed as “B (3≥B>2)”.
For `COc1cnc(CN2C(=O)c3ccccc3C2Cc2c(Cl)cnn2C)cc1F` (stereo not drawn) [Compound 555, 3-((4-chloro-1-methyl-1H-pyrazol-5-yl)methyl)-2-((4-fluoro-5-methoxypyridin-2-yl)methyl)isoindolin-1-one], in assay [1] (setting [5]), the EC50 was below 0.5 µM and the maximal fold induction was above 1.5. The EC50 in assay [2] (setting [6]) was at least 5 µM. Moreover, in assay [2], the “Enzymatic Emax” value is on record as “B (3≥B>2)”.
